US9809853B2, “Calcium-activated chloride channel involved in human sweat formation” (BRAIN Biotechnology Research and Information Network AG, priority 2012, dated 2017)

Target: T1, TMEM16A(ac) (Homo sapiens, UniProt Q5XXA6, DEL476-501)
T1 construct: expressed in transfected cells
T1 sequence (Q5XXA6 with tags, fused parts or gaps DEL476-501): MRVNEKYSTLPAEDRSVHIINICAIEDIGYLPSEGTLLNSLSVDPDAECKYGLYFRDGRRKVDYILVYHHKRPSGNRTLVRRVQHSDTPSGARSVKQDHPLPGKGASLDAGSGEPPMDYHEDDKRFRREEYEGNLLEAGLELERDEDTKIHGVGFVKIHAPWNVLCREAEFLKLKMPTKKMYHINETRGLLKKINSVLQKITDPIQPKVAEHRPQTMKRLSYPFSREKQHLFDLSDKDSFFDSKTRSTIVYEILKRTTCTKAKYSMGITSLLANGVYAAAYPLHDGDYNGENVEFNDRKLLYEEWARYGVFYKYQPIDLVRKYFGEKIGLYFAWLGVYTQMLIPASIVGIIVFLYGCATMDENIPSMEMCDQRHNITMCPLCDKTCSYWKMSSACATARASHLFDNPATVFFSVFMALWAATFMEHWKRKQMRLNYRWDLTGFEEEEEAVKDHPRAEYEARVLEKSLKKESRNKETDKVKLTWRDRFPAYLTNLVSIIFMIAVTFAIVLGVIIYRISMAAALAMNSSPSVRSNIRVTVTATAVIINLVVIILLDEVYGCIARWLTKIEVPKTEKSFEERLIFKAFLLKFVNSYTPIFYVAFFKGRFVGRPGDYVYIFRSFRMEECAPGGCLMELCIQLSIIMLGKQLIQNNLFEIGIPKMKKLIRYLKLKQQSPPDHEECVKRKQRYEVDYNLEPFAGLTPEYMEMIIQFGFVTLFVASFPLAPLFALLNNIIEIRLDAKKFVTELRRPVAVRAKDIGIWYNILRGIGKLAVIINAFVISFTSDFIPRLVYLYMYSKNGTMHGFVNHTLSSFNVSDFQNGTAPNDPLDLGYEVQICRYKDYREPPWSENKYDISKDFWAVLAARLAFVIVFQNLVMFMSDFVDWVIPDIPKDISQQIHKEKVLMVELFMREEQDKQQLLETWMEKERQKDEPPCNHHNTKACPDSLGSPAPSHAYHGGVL
Experiment: hsYFP quenching assay in NCL-SG3-hsYFP-TMEM16A(ac) cells
Type: cell-based
Details: 330 μM ATP; for Effect of pretreatment on hsYFP quenching / Ca^2+-dependent Cl^− secretion after ATP: cells overexpressing TMEM16A(ac)
Experimental: NCL-SG3-hsYFP, NCL-SG 3-hsYFP-TMEM16A(ac) and NCL-SG3-hsYFP-TMEM16A(acΔe3) cells were untreated (basal activity) or stimulated with ATP (330 μM). Quenching of hsYFP fluorescence was determined. The rate of I^− influx (sec^−1) was calculated from the initial slope of measured hsYFP fluorescence (ΔYFP fluorescence/Δtime) and is a direct measure of CaCC activity. For better comparison fold changes compared to basal activity of parental cells are shown. […] All influx rate differences are higly statistically significant, except the basal influx rate of parental and TMEM16A(ac) overexpressing NCL-SG3-hsYFP cells (Student's t-test, two-tailed; *** p-value<0.0001).
TMEM16A(ac) and TMEM16A(acΔe3) are present in human eccrine sweat glands and were therefore obtained by RT-PCR amplification using TRIzol® (Invitrogen) extracted RNA from freshly isolated human eccrine sweat glands using oligonucleotides (forward 5′-[…]; reverse 5′-[…]) SEQ ID NOS: 5 and 6 , which amplify full-length TMEM16A, and subsequently cloned into the proprietary eukaryotic gene expression plasmid (pEF1α-TMEM16A(ac) and pEF1α-TMEM16A(acΔe3), FIG. 6A). […] Both genes are coupled by an internal ribosomal entry site (IRES) to enable efficient translation of both open reading frames located on the same mRNA. […]
Taken together, NCL-SG3-hsYFP cells can be used to monitor Ca^2+-dependent Cl^− fluxes, which represent the initial step in primary sweat formation in sweat gland cells. […] Microplates were transferred into an automated fluorescence plate reader (FlexStation®, Molecular Devices) and cellular hsYFP fluorescence was continuously recorded every 3.5 sec until end of the experiment (excitation at 485 nm, emission at 535 nm, cutoff 515 nm). […] NCL-SG3-hsYFP cells allow quantitative evaluation of in vivo Cl^− channel activity (FIGS. 9 and 10D). To determine the exact rate of Cl^− efflux/I^− influx the hsYFP fluorescence was plotted against time (ΔYFP fluorescence/Δtime). […]

| Effect of pretreatment on hsYFP quenching / Ca^2+-dependent Cl^− secretion after ATP | Effect of pretreatment on hsYFP quenching / Ca^2+-dependent Cl^− secretion after ATP (listed as tannic acid) | Compound | ATP-induced activity (I^− influx rate, fold) (TMEM16A(ac) overexpressing cells) [fold] |
| --- | --- | --- | --- |
| significant reduction of hsYFP quenching | inhibited | O=C(OC[C@H]1O[C@@H](OC(=O)c2cc(O)c(O)c(OC(=O)c3cc(O)c(O)c(O)c3)c2)[C@H](OC(=O)c2cc(O)c(O)c(OC(=O)c3cc(O)c(O)c(O)c3)c2)[C@@H](OC(=O)c2cc(O)c(O)c(OC(=O)c3cc(O)c(O)c(O)c3)c2)[C@@H]1OC(=O)c1cc(O)c(O)c(OC(=O)c2cc(O)c(O)c(O)c2)c1)c1cc(O)c(O)c(OC(=O)c2cc(O)c(O)c(O)c2)c1 [TA, tannic acid] | – |
| – | – | Nc1ncnc2c1ncn2[C@@H]1O[C@H](COP(=O)(O)OP(=O)(O)OP(=O)(O)O)[C@@H](O)[C@H]1O [ATP] | 10 |
